Values after ≈ are worked out from the molar mass of the structure shown.
Experiments:
Candida albicans = experiment: Antifungal activity against Candida albicans by dilution method; format: functional
[1] = test system: Mycobacterium tuberculosis; experiment: Antimycobacterial activity against Mycobacterium tuberculosis H37Rv by MABA method; format: functional

| Compound | MIC (Candida albicans) [mg/L] | MIC90 [1] [mg/L] |
| --- | --- | --- |
| COc1ccc(/C=C/C(=O)c2ccc(N3C(=O)C(Br)=C(Br)C3=O)cc2)cc1 | 1000 (≈ 2040 µM) | 500 (≈ 1020 µM) |
| NYSTATIN | 100 | – |
| O=C(/C=C/c1ccccc1O)c1ccc(N2C(=O)C(Br)=C(Br)C2=O)cc1 | 100 (≈ 210 µM) | 50 (≈ 105 µM) |
| O=C(/C=C/c1ccccc1Cl)c1ccc(N2C(=O)C(Br)=C(Br)C2=O)cc1 | 1000 (≈ 2020 µM) | 250 (≈ 504 µM) |
| COC1=CC(=O)C[C@@H](C)[C@]12Oc1c(Cl)c(OC)cc(OC)c1C2=O [GRISEOFULVIN] | 500 (≈ 1420 µM) | – |
| NNC(=O)c1ccncc1 [ISONIAZID] | – | 0.2 (≈ 1.46 µM) |
| Cc1ccc(/C=C/C(=O)c2ccc(N3C(=O)C(Br)=C(Br)C3=O)cc2)cc1 | 1000 (≈ 2100 µM) | 500 (≈ 1050 µM) |
| O=C(/C=C/c1ccc(Cl)cc1)c1ccc(N2C(=O)C(Br)=C(Br)C2=O)cc1 | 250 (≈ 504 µM) | 100 (≈ 202 µM) |
| COc1ccc(/C=C/C(=O)c2ccc(N3C(=O)C(Br)=C(Br)C3=O)cc2)cc1[N+](=O)[O-] | 1000 (≈ 1870 µM) | 1000 (≈ 1870 µM) |
| COc1ccc(/C=C/C(=O)c2ccc(N3C(=O)C(Br)=C(Br)C3=O)cc2)cc1OC | 500 (≈ 959 µM) | 500 (≈ 959 µM) |
| O=C(/C=C/c1cccc([N+](=O)[O-])c1)c1ccc(N2C(=O)C(Br)=C(Br)C2=O)cc1 | 250 (≈ 494 µM) | 200 (≈ 395 µM) |
| O=C(/C=C/c1ccc(O)cc1)c1ccc(N2C(=O)C(Br)=C(Br)C2=O)cc1 | 150 (≈ 314 µM) | 60 (≈ 126 µM) |
| O=C(/C=C/c1ccc(Cl)cc1Cl)c1ccc(N2C(=O)C(Br)=C(Br)C2=O)cc1 | 500 (≈ 943 µM) | 500 (≈ 943 µM) |
| O=C(/C=C/c1ccccc1)c1ccc(N2C(=O)C(Br)=C(Br)C2=O)cc1 | 250 (≈ 542 µM) | 500 (≈ 1080 µM) |

From ChEMBL document CHEMBL3046117, “Synthesis of 1-(4-((E)-3-arylacryloyl) phenyl)-3,4-dibromo-1H-pyrrole-2,5-diones and screening for anti-Candida and antituberculosis activity” (2012)
